Assay results: US6906078B2, “Method of using (H+/K+) ATPase inhibitors as antiviral agents” (Pharmacia Corporation, priority 1994, dated 2005)

Legend:
[1] = biological target: T1, (H+/K+)-ATPase (Canis lupus familiaris, UniProt P50996); assay: Inhibition of (H+/K+)-ATPase from canine gastric mucosa (inorganic phosphate release); type: biochemical; details: canine gastric mucosa microsomes, pH 6.0, 30 min preincubation at 37° C.; read-out: (H+/K+)-ATPase IC50
T1 construct: The microsomes retained at the 15%-30% sucrose interface, after centrifugation at 250,000×g for sixty minutes, were used as the source of (H^+/K^+)-ATPase; from tissue; host or cells: gastric glandular mucosa of mongrel dogs (microsomal fraction, lyophilized)
T1 sequence (P50996 whole entry): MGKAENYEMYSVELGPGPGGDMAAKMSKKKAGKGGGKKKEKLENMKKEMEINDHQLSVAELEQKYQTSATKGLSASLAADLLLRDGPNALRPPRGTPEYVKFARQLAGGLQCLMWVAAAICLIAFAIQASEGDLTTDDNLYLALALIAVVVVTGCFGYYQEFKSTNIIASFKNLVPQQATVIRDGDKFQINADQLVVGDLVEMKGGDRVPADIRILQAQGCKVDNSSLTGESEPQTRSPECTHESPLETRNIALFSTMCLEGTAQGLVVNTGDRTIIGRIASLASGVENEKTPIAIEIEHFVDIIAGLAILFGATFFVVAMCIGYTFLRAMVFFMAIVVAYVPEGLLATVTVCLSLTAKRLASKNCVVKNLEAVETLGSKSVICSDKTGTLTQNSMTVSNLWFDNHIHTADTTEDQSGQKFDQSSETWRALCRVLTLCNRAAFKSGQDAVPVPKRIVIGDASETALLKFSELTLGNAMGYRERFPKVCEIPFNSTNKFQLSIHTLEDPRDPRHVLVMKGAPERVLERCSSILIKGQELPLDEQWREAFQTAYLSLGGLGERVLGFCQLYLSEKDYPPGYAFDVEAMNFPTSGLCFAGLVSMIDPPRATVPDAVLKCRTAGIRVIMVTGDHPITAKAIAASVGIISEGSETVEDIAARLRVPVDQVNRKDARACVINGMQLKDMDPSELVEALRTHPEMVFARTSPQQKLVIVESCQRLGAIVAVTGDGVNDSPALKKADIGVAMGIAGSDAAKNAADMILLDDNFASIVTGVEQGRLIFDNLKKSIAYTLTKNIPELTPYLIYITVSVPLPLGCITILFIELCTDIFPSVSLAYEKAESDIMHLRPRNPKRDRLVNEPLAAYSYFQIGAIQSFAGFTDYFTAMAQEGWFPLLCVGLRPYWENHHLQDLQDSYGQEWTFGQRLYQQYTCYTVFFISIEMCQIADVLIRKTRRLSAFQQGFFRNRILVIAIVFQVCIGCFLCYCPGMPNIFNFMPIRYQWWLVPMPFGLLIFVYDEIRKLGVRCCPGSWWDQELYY
T1 sequence (P33704 whole entry partner): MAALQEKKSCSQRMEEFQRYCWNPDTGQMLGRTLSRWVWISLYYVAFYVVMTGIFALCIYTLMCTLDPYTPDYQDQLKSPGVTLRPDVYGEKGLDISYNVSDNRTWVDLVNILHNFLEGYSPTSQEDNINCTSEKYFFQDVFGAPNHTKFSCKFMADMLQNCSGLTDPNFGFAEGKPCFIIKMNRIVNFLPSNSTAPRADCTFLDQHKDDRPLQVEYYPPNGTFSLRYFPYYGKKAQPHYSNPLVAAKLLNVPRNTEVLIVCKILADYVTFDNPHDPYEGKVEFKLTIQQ
In short: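 Lyophilised gastric microsomes (sucrose-gradient 15%/30% interface fraction from dog mucosa, ~25 mcg protein) preincubated with compound 30 min at 37° C in 20 mM MES-Tris pH 6.0, 5 mM MgCl2, 25 mM sucrose, then 30 min more after 4 mM Tris-ATP. Released phosphate read by molybdate/ascorbate at 870 nm; activity = K+-stimulated (20 mM KCl) minus basal.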

[2] = biological target: HCMV protease (assemblin) (Human cytomegalovirus, UniProt P16753); assay: Enzymatic assay for HCMV protease (assemblin) inhibitors, fluorogenic substrate DE2; type: biochemical; details: at 100 μm; 30 min preincubation at 22° C.; read-out: Assemblin Inhibition % Inhibition at 100 μm
Chain of HCMV protease (assemblin) (P16753 1-256): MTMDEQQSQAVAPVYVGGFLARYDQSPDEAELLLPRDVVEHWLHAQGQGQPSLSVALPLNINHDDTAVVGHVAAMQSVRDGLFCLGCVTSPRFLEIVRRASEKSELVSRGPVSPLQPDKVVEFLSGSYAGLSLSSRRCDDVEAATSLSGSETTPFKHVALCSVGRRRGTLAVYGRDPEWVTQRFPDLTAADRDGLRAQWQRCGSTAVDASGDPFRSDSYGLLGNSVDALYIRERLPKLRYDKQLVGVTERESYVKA
Protocol: The enzymatic assay for assemblin inhibitors compared the rate of product appearance between a control reaction containing no inhibitor and one that contained a known concentration of a potential inhibitor. There were two phases to the enzyme reaction. The first was a period of incubation of enzyme in the presence of inhibitor, but in the absence of the substrate. This incubation allowed for the inhibitor to bind and potentially block the enzyme from hydrolyzing the substrate. The second phase was started by adding the substrate and measuring the rate of product production.
The construction also encoded six additional histidine residues at the amino terminus of the protease. These additional histidine residues provided an affinity ligand by which it was purified using nickel-nitriloacetic acid-agarose (Qiagen).
The purified protease was stored as a 1-3 mg/ml stock solution in 50 mM sodium phosphate buffer, pH 7.4; 300 mM sodium chloride; 100 mM imidazole; 50% (v/v) glycerol. This stock was diluted with assay buffer to 4.8 μg/ml. A 100 μL aliquot of this solution was used in the enzyme reaction.
A specific substrate was synthesized based on the cleavage specificity of HCMV protease at the “maturation site” of the assembly protein (F. Liu and B. Roizman, J. Viral. 65, 5149 (1991), and A. R. Welch, et al, J. Viral., 65 4091 (1991)). The assembly protein maturation site has the sequence . . . AGVVNA*SCRLATA . . . (SEQ ID NO. 1); the substrate used was dabcycl-Abu-[…]-edans (SEQ ID NO. 2) (DE2). […] However, when the two chromophores are separated because of hydrolysis of the peptide moiety by HCMV protease the edans fluorescence was no longer quenched and an increase in fluorescence was realized. DE2 was stored as a stock solution at 160 μg/ml in dimethyl sulfoxide. This was diluted 10-fold with assay buffer to give a concentration of 16 μg/ml just before use. An aliquot of 50 μL was used in the reaction.
An assay Buffer (10 mM sodium phosphate buffer, pH 7.4; 150 mM sodium acetate; 0.1% CHAPS; and 20% (v/v) glycerol) was used to dilute stock solutions of enzyme and substrate.
Inhibitors were dissolved in dimethyl sulfoxide at 16-times the final assay concentration. A 10 μL aliquot of this inhibitor solution was used in the reaction.
A 100 μL aliquot of enzyme solution (4.8 μg/ml) was mixed with 10 μL of inhibitor solution in a 96-well plate cell and incubated at 22° C. for 30 minutes. Control reactions contained 10 μL of dimethylsulfoxide instead of inhibitor solution. After the preincubation was completed, 50 μL of substrate solution was added and the fluorescence recorded every 5 minutes for a period of 30 minutes. All reactions were run in triplicate with the exception of the uninhibited control reaction which was replicated 6-fold. The change in fluorescence was recorded over time and an average rate for each set of 3 reactions was calculated. Fluorescence assays were subject to spurious various due to factors such as dust in the 96-well plate; such results were omitted from the calculation of relative rates.

Structure (SMILES) | melting point [°C] | IC50 [1] [nM] | inhibition at 100 µM [2] [%]
COc1ccc(N)c(C[S+]([O-])c2nc3ccccc3[nH]2)c1 (stereo not shown) [Example 20, 2-[(1H-Benzimidazol-2-ylsulfinyl)methyl]-4-methoxybenzenamine] | 152 to 153 | 1600 | 60
Cc1ccc2[nH]c([S+]([O-])Cc3ccccc3N)nc2c1 (stereo not shown) [Example 41, 2-[[(5-Methyl-1H-benzimidazol-2-yl)sulfinyl]-methyl]benzenamine] | 170 to 171 | 7900 | 67
Nc1ccccc1C[S+]([O-])c1nc2cc(Cl)ccc2[nH]1 (stereo not shown) [Example 43, 2-[[(5-Chloro-1H-benzimidazol-2-yl)sulfinyl]-methyl]benzenamine] | 165 to 166 | 12000 | 74
Cc1ccc(C[S+]([O-])c2nc3ccccc3[nH]2)c(N)c1C (stereo not shown) [Example 53, 2-[(1H-Benzimidazol-2-ylsulfinyl)methyl]-5,6-dimethylbenzenamine ¼ hydrate] | – | 600 | 85
COc1ccc2[nH]c([S+]([O-])Cc3c(N)cc(C)c(OC)c3C)nc2c1 (stereo not shown) [Example 78, 2-[[(5-Methoxy-1H-benzimidazol-2-yl)sulfinyl]methyl]-4-methoxy-3,5-dimethylbenzenamine] | 149 to 155 | 2100 | 82
COc1ccc2[nH]c([S+]([O-])Cc3ncc(C)c(OC)c3C)nc2c1 (stereo not shown) [omeprazole, reference compound] | – | 1900 | 0
